tested on: E. coli AG-100A; experiment: Potentiation of known antibiotics (MIC of antibiotic alone or with PAFA); format: cell-based; conditions: Escherichia coli, AG100A, 24 h, Antibiotic alone
Procedure: (§1) 100 μl of a liquid culture medium is deposited in each well of a 96-well microplate, and then inoculated with the bacterial suspension of example 2.1 prepared for the positive control. The volume needed to inoculate is calculated for an OD of 0.01 which corresponds to approximately 5,106 bacteria in each well. In this plate, the first row corresponds to a negative control (200 μl of sterile culture medium in each well), the second row to a positive control (100 μl of sterile culture medium with 100 μl of the bacterial suspension), the third row contains 192 μl of culture medium and 8 μl of an antibiotic solution (10 mg/ml) to be tested in each well. Subsequently, a cascade dilution is performed from this line. Next, 10 μl of a fatty acid solution (10 μM final concentration) is added to each well of the lines. Then, 90 μl of bacterial suspension is added to lines 3 to 8. The MIC of the antibiotic tested is determined after 24 hours of incubation at 37 °C in a humid atmosphere.
(§2) The table 3 below reports the antibacterial activity (MIC in μg/mL) of a combination of some polyaminated fatty acids prepared in example 1 with various antibacterial drugs: doxycycline (DOX), tetracycline (TET), oxytetracycline (OXY) and minocycline (MINO), against various bacterial strains of P. aeruginosa (PA01, PA0509, and PA263), and of E. coli (AG-100 and AG-100A).

Row | Structure (SMILES) | MIC [µg/mL]
1 | CN(C)[C@@H]1C(O)=C(C(N)=O)C(=O)[C@@]2(O)C(O)=C3C(=O)c4c(O)cccc4[C@@](C)(O)[C@H]3[C@H](O)[C@@H]12 [OXY, oxytetracycline] | 1

same assay, conditions: Escherichia coli, AG100A, 24 h, MIC of antibiotic, +PAFA10 (10 μM)

Row | Structure (SMILES) | MIC [µg/mL]
2 | CN(C)[C@@H]1C(O)=C(C(N)=O)C(=O)[C@@]2(O)C(O)=C3C(=O)c4c(O)cccc4[C@@](C)(O)[C@H]3[C@H](O)[C@@H]12 [OXY, oxytetracycline] | 1

same assay, conditions: Escherichia coli, AG100A, 24 h, MIC of antibiotic, +PAFA11 (10 μM)

Row | Structure (SMILES) | MIC [µg/mL]
3 | CN(C)[C@@H]1C(O)=C(C(N)=O)C(=O)[C@@]2(O)C(O)=C3C(=O)c4c(O)cccc4[C@@](C)(O)[C@H]3[C@H](O)[C@@H]12 [OXY, oxytetracycline] | 1

same assay, conditions: Escherichia coli, AG100A, 24 h, MIC of antibiotic, +PAFA14 (10 μM)

Row | Structure (SMILES) | MIC [µg/mL]
4 | CN(C)[C@@H]1C(O)=C(C(N)=O)C(=O)[C@@]2(O)C(O)=C3C(=O)c4c(O)cccc4[C@@](C)(O)[C@H]3[C@H](O)[C@@H]12 [OXY, oxytetracycline] | 0.008

tested on: E. coli AG-100; experiment: as above; format: cell-based; conditions: Escherichia coli, AG100, 24 h, AG-100, Antibiotic alone
Procedure: as §1, §2

Row | Structure (SMILES) | MIC [µg/mL]
5 | CN(C)[C@@H]1C(O)=C(C(N)=O)C(=O)[C@@]2(O)C(O)=C3C(=O)c4c(O)cccc4[C@@](C)(O)[C@H]3[C@H](O)[C@@H]12 [OXY, oxytetracycline] | 1

same assay, conditions: Escherichia coli, AG100, 24 h, MIC of antibiotic, AG-100, +PAFA10 (10 μM)

Row | Structure (SMILES) | MIC [µg/mL]
6 | CN(C)[C@@H]1C(O)=C(C(N)=O)C(=O)[C@@]2(O)C(O)=C3C(=O)c4c(O)cccc4[C@@](C)(O)[C@H]3[C@H](O)[C@@H]12 [OXY, oxytetracycline] | 1

same assay, conditions: Escherichia coli, AG100, 24 h, MIC of antibiotic, AG-100, +PAFA11 (10 μM)

Row | Structure (SMILES) | MIC [µg/mL]
7 | CN(C)[C@@H]1C(O)=C(C(N)=O)C(=O)[C@@]2(O)C(O)=C3C(=O)c4c(O)cccc4[C@@](C)(O)[C@H]3[C@H](O)[C@@H]12 [OXY, oxytetracycline] | 0.13

same assay, conditions: Escherichia coli, AG100, 24 h, MIC of antibiotic, AG-100, +PAFA14 (10 μM)

Row | Structure (SMILES) | MIC [µg/mL]
8 | CN(C)[C@@H]1C(O)=C(C(N)=O)C(=O)[C@@]2(O)C(O)=C3C(=O)c4c(O)cccc4[C@@](C)(O)[C@H]3[C@H](O)[C@@H]12 [OXY, oxytetracycline] | 0.008

tested on: P. aeruginosa PA01; experiment: as above; format: cell-based; conditions: Pseudomonas aeruginosa, PA01, 24 h, MIC of antibiotic, PA01, +PAFA10 (10 μM)
Procedure: as §1, §2

Row | Structure (SMILES) | MIC [µg/mL]
9 | CN(C)[C@@H]1C(O)=C(C(N)=O)C(=O)[C@@]2(O)C(O)=C3C(=O)c4c(O)cccc4[C@@](C)(O)[C@H]3[C@H](O)[C@@H]12 [OXY, oxytetracycline] | 8

same assay, conditions: Pseudomonas aeruginosa, PA01, 24 h, MIC of antibiotic, PA01, +PAFA11 (10 μM)

Row | Structure (SMILES) | MIC [µg/mL]
10 | CN(C)[C@@H]1C(O)=C(C(N)=O)C(=O)[C@@]2(O)C(O)=C3C(=O)c4c(O)cccc4[C@@](C)(O)[C@H]3[C@H](O)[C@@H]12 [OXY, oxytetracycline] | 8

same assay, conditions: Pseudomonas aeruginosa, PA01, 24 h, MIC of antibiotic, PA01, +PAFA14 (10 μM)

Row | Structure (SMILES) | MIC [µg/mL]
11 | CN(C)[C@@H]1C(O)=C(C(N)=O)C(=O)[C@@]2(O)C(O)=C3C(=O)c4c(O)cccc4[C@@](C)(O)[C@H]3[C@H](O)[C@@H]12 [OXY, oxytetracycline] | 2

same assay, conditions: Pseudomonas aeruginosa, PA01, 24 h, PA01, Antibiotic alone

Row | Structure (SMILES) | MIC [µg/mL]
12 | CN(C)[C@@H]1C(O)=C(C(N)=O)C(=O)[C@@]2(O)C(O)=C3C(=O)c4c(O)cccc4[C@@](C)(O)[C@H]3[C@H](O)[C@@H]12 [OXY, oxytetracycline] | 32

tested on: P. aeruginosa PA0509; experiment: as above; format: cell-based; conditions: Pseudomonas aeruginosa, PA0509, 24 h
Procedure: as §1, §2

Row | Structure (SMILES) | MIC [µg/mL]
13 | CN(C)[C@@H]1C(O)=C(C(N)=O)C(=O)[C@@]2(O)C(O)=C3C(=O)c4c(O)cccc4[C@@](C)(O)[C@H]3[C@H](O)[C@@H]12 [OXY, oxytetracycline] | 1

same assay, conditions: Pseudomonas aeruginosa, PA0509, 24 h, MIC of antibiotic, PA0509, +PAFA10 (10 μM), 24 h

Row | Structure (SMILES) | MIC [µg/mL]
14 | CN(C)[C@@H]1C(O)=C(C(N)=O)C(=O)[C@@]2(O)C(O)=C3C(=O)c4c(O)cccc4[C@@](C)(O)[C@H]3[C@H](O)[C@@H]12 [OXY, oxytetracycline] | 0.25

same assay, conditions: Pseudomonas aeruginosa, PA0509, 24 h, MIC of antibiotic, PA0509, +PAFA11 (10 μM), 24 h

Row | Structure (SMILES) | MIC [µg/mL]
15 | CN(C)[C@@H]1C(O)=C(C(N)=O)C(=O)[C@@]2(O)C(O)=C3C(=O)c4c(O)cccc4[C@@](C)(O)[C@H]3[C@H](O)[C@@H]12 [OXY, oxytetracycline] | 0.5

same assay, conditions: Pseudomonas aeruginosa, PA0509, 24 h, MIC of antibiotic, PA0509, +PAFA14 (10 μM), 24 h

Row | Structure (SMILES) | MIC [µg/mL]
16 | CN(C)[C@@H]1C(O)=C(C(N)=O)C(=O)[C@@]2(O)C(O)=C3C(=O)c4c(O)cccc4[C@@](C)(O)[C@H]3[C@H](O)[C@@H]12 [OXY, oxytetracycline] | 0.063

tested on: P. aeruginosa PA263; experiment: as above; format: cell-based; conditions: PA263, +PAFA11 (10 μM)
Procedure: as §1, §2

Row | Structure (SMILES) | fold reduction in MIC (MIC alone / MIC with PAFA)
17 | CN(C)[C@@H]1C(O)=C(C(N)=O)C(=O)[C@@]2(O)C(O)=C3C(=O)c4c(O)cccc4[C@@](C)(O)[C@H]3[C@H](O)[C@@H]12 [OXY, oxytetracycline] | 2

same assay, conditions: Pseudomonas aeruginosa, PA263, 24 h, MIC of antibiotic, PA263, +PAFA10 (10 μM), 24 h

Row | Structure (SMILES) | MIC [µg/mL]
18 | CN(C)[C@@H]1C(O)=C(C(N)=O)C(=O)[C@@]2(O)C(O)=C3C(=O)c4c(O)cccc4[C@@](C)(O)[C@H]3[C@H](O)[C@@H]12 [OXY, oxytetracycline] | 8

same assay, conditions: Pseudomonas aeruginosa, PA263, 24 h, MIC of antibiotic, PA263, +PAFA11 (10 μM), 24 h

Row | Structure (SMILES) | MIC [µg/mL]
19 | CN(C)[C@@H]1C(O)=C(C(N)=O)C(=O)[C@@]2(O)C(O)=C3C(=O)c4c(O)cccc4[C@@](C)(O)[C@H]3[C@H](O)[C@@H]12 [OXY, oxytetracycline] | 16

same assay, conditions: Pseudomonas aeruginosa, PA263, 24 h, MIC of antibiotic, PA263, +PAFA14 (10 μM), 24 h

Row | Structure (SMILES) | MIC [µg/mL]
20 | CN(C)[C@@H]1C(O)=C(C(N)=O)C(=O)[C@@]2(O)C(O)=C3C(=O)c4c(O)cccc4[C@@](C)(O)[C@H]3[C@H](O)[C@@H]12 [OXY, oxytetracycline] | 4

same assay, conditions: Pseudomonas aeruginosa, PA263, 24 h, PA263, Antibiotic alone, 24 h

Row | Structure (SMILES) | MIC [µg/mL]
21 | CN(C)[C@@H]1C(O)=C(C(N)=O)C(=O)[C@@]2(O)C(O)=C3C(=O)c4c(O)cccc4[C@@](C)(O)[C@H]3[C@H](O)[C@@H]12 [OXY, oxytetracycline] | 32

Source: patent US20260373101A1, “POLYAMINATED FATTY ACIDS FOR USE AS POTENTIATORS OF ANTIBACTERIAL ACTIVITY” (priority 2023, published 2026)
